Results: PubChem BioAssay (NCI)
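48-hour exposure; five concentrations; linearly interpolated endpoints. GI50 = concentration required for 50% inhibition of growth. TGI is the concentration that stops growth completely.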

Legend:
Assay in all cases: growth of human tumour cells (NCI), 48 h
[1] = system: M14 melanoma
[2] = system: SK-OV-3 ovarian
[3] = system: A498 renal
[4] = system: RPMI-8226 leukemia
[5] = system: MDA-MB-231 breast
[6] = system: A549 NSCLC
[7] = system: HCT-15 colon
[8] = system: HS 578T breast
[9] = system: SF-268 CNS
[10] = system: SK-MEL-28 melanoma
[11] = system: HCT-116 colon
[12] = system: MCF7 breast
[13] = system: NCI/ADR-RES ovarian
[14] = system: 786-0 renal
[15] = system: NCI-H23 lung
[16] = system: HCC-2998 colon
[17] = system: NCI-H522 lung
[18] = system: LOX IMVI melanoma
[19] = system: K-562 leukemia
[20] = system: SK-MEL-2 melanoma
[21] = system: ACHN renal
[22] = system: COLO 205 colon
[23] = system: UACC-257 melanoma
[24] = system: OVCAR-8 ovarian
[25] = system: NCI-H460 lung
[26] = system: CCRF-CEM leukemia
[27] = system: OVCAR-5 ovarian
[28] = system: HT29 colon
[29] = system: SNB-75 CNS

Cc1nc(Nc2ccccn2)sc1C(=O)CC(SCC(=O)Nc1ccc(Cl)cc1)c1ccccc1F (stereo not drawn)
GI50 [1]: 1.69 µM
TGI [1]: 4.02 µM
GI50 [2]: 3.63 µM
TGI [2]: 29.2 µM
GI50 [3]: 12.7 µM
TGI [3]: 35.7 µM
GI50 [4]: 3.33 µM
TGI [4]: 72.1 µM
GI50 [5]: 2.64 µM
TGI [5]: 7.86 µM
GI50 [6]: 3.15 µM
TGI [6]: 22.8 µM
GI50 [7]: 1.8 µM
TGI [7]: 11.2 µM
GI50 [8]: 2.14 µM
TGI [8]: 6.17 µM
GI50 [9]: 3.74 µM
TGI [9]: 17.3 µM
GI50 [10]: 5.45 µM
TGI [10]: 19.7 µM
GI50 [11]: 2.2 µM
TGI [11]: 6.46 µM
GI50 [12]: 1.25 µM
TGI [12]: 13.8 µM
GI50 [13]: 1.81 µM
TGI [13]: 5.44 µM
GI50 [14]: 3.74 µM
TGI [14]: 14.3 µM
GI50 [15]: 3.84 µM
TGI [15]: 15.7 µM
GI50 [16]: 3.44 µM
TGI [16]: 13.8 µM
GI50 [17]: 2.22 µM
TGI [17]: 6.4 µM
GI50 [18]: 2.31 µM
TGI [18]: 10.3 µM
GI50 [19]: > 100 µM
TGI [19]: > 100 µM
GI50 [20]: 2.03 µM
TGI [20]: 4.74 µM
GI50 [21]: 3.9 µM
TGI [21]: 14.8 µM
GI50 [22]: 2.18 µM
TGI [22]: 4.67 µM
GI50 [23]: 4.72 µM
TGI [23]: 19.4 µM
GI50 [24]: 2.31 µM
TGI [24]: 5.88 µM
GI50 [25]: 2.23 µM
TGI [25]: 5.22 µM
GI50 [26]: 2.39 µM
TGI [26]: > 100 µM
GI50 [27]: 2.6 µM
TGI [27]: 6.89 µM
GI50 [28]: 2.16 µM
TGI [28]: 5.44 µM
GI50 [29]: 1.42 µM
TGI [29]: 6.22 µM
